Calls of active or inactive are those of the source. The calls are words filed in the database; no cut-off is given here.
Columns and labels:
Homo sapiens [1] = organism: Homo sapiens; assay: Binding affinity to 5-HT1 receptor (unknown origin) at 10 uM
[2] = target: Estrogen receptor (Homo sapiens) (UniProt P03372); assay: Binding affinity to human estrogen receptor at 10 uM by radioligand binding assay
[3] = target: Androgen receptor (Homo sapiens) (UniProt P10275); assay: Binding affinity to human androgen receptor at 10 uM by radioligand binding assay
[4] = target: Vasopressin V1a receptor (Homo sapiens) (UniProt P37288); assay: Binding affinity to human V1a receptor at 10 uM by radioligand binding assay
Homo sapiens [5] = organism: Homo sapiens; assay: Binding affinity to L-type calcium channel verapamil binding site (unknown origin) at 10 uM by radioligand binding assay
Homo sapiens [6] = organism: Homo sapiens; assay: Binding affinity to ATP-sensitive potassium channel (unknown origin) at 10 uM by radioligand binding assay
Homo sapiens [7] = organism: Homo sapiens; assay: Binding affinity to small conductance calcium-activated potassium channel (unknown origin) at 10 uM by radioligand binding assay
[8] = target: Sodium-dependent dopamine transporter (Homo sapiens) (UniProt Q01959); assay: Binding affinity to human dopamine transporter at 10 uM by radioligand binding assay
[9] = target: Sodium-dependent serotonin transporter (Homo sapiens) (UniProt P31645); assay: Binding affinity to human 5-HT transporter at 10 uM by radioligand binding assay
[10] = target: Thromboxane A2 receptor (Homo sapiens) (UniProt P21731); assay: Agonist activity against human TP receptor at 10 uM
[11] = target: Transient receptor potential cation channel subfamily V member 1 (Homo sapiens) (UniProt Q8NER1); assay: Agonist activity against human TRPV1 receptor at 10 uM
[12] = target: Nitric oxide synthase, inducible (Homo sapiens) (UniProt P35228); assay: Binding affinity to inducible NOS (unknown origin) at 10 uM
[13] = target: cGMP-dependent 3',5'-cyclic phosphodiesterase (Homo sapiens) (UniProt O00408); assay: Binding affinity to human PDE2A1 at 10 uM
[14] = target: cGMP-inhibited 3',5'-cyclic phosphodiesterase 3A (Homo sapiens) (UniProt Q14432); assay: Binding affinity to human PDE3A at 10 uM
[15] = target: cGMP-specific 3',5'-cyclic phosphodiesterase (Homo sapiens) (UniProt O76074); assay: Binding affinity to human PDE5 at 10 uM
[16] = target: M-phase inducer phosphatase 1 (Homo sapiens) (UniProt P30304); assay: Binding affinity to CDC25A (unknown origin) at 10 uM
[17] = target: Tyrosine-protein phosphatase non-receptor type 1 (Homo sapiens) (UniProt P18031); assay: Binding affinity to PTPN1 (unknown origin) at 10 uM
[18] = target: Protein kinase C alpha type (Homo sapiens) (UniProt P17252); assay: Binding affinity to human PKC-alpha at 10 uM
[19] = target: Catechol O-methyltransferase (Homo sapiens) (UniProt P21964); assay: Binding affinity to COMT (unknown origin) at 10 uM
[20] = target: 4-aminobutyrate aminotransferase, mitochondrial (Homo sapiens) (UniProt P80404); assay: Binding affinity to GABA transaminase (unknown origin) at 10 uM
[21] = target: Amine oxidase [flavin-containing] A (Homo sapiens, UniProt P21397); assay: Binding affinity to human MAO-A at 10 uM
[22] = target: Amine oxidase [flavin-containing] B (Homo sapiens, UniProt P27338); assay: Binding affinity to recombinant human MAO-B at 10 uM
[23] = target: Sodium/potassium-transporting ATPase (Homo sapiens) (UniProt P05023+P14415+P05026+P50993+P54709+P13637+Q13733+P54710); assay: Binding affinity to sodium/potassium-transporting ATPase (unknown origin) at 10 uM; type: protein-complex assay
[24] = target: Centromere-associated protein E (Homo sapiens) (UniProt Q02224); assay: Binding affinity to human CENP-E at 10 uM
[25] = target: Histone deacetylase 4 (Homo sapiens) (UniProt P56524); assay: Binding affinity to human HDAC4 at 10 uM
Mus musculus [26] = assay: In-vivo inhibition of COX in mouse plasma assessed as decrease in 6-keto-PGF1-alpha level at 1 mg/kg, iv after 1 hr by LC-MS/MS analysis; type: functional, organism-based
Mus musculus [27] = assay: In-vivo inhibition of COX in mouse plasma assessed as decrease in TXA2 level at 1 mg/kg, iv after 1 hr by LC-MS/MS analysis; type: functional, organism-based
Mus musculus [28] = assay: In-vivo inhibition of FAAH in mouse plasma assessed as increase in OEA level at 1 mg/kg, iv after 1 hr by LC-MS/MS analysis; type: functional, organism-based
[29] = target: Beta-2 adrenergic receptor (Homo sapiens) (UniProt P07550); assay: Binding affinity to beta-2 adrenergic receptor (unknown origin) at 10 uM by radioligand binding assay
[30] = target: B1 bradykinin receptor (Homo sapiens) (UniProt P46663); assay: Binding affinity to human bradykinin 1 receptor at 10 uM by radioligand binding assay
[31] = target: Calcitonin gene-related peptide 1 (Homo sapiens) (UniProt P06881); assay: Binding affinity to CGRP1 (unknown origin) at 10 uM
[32] = target: Cannabinoid receptor 2 (Homo sapiens) (UniProt P34972); assay: Binding affinity to human cannabinoid receptor 2 at 10 uM by radioligand binding assay
[33] = target: Gastrin/cholecystokinin type B receptor (Homo sapiens) (UniProt P32239); assay: Binding affinity to human cholecystokinin receptor type B at 10 uM by radioligand binding assay
[34] = target: D(1A) dopamine receptor (Homo sapiens) (UniProt P21728); assay: Binding affinity to human dopamine D1 receptor at 10 uM by radioligand binding assay
[35] = target: D(2) dopamine receptor (Homo sapiens) (UniProt P14416); assay: Binding affinity to human dopamine D2S receptor at 10 uM by radioligand binding assay
[36] = target: D(3) dopamine receptor (Homo sapiens) (UniProt P35462); assay: Binding affinity to human dopamine D3 receptor at 10 uM by radioligand binding assay
[37] = target: D(4) dopamine receptor (Homo sapiens) (UniProt P21917); assay: Binding affinity to human dopamine D4.4 receptor at 10 uM by radioligand binding assay
[38] = target: Melanocortin receptor 4 (Homo sapiens) (UniProt P32245); assay: Binding affinity to human melanocortin-4 receptor at 10 uM by radioligand binding assay
[39] = target: Melatonin receptor type 1A (Homo sapiens) (UniProt P48039); assay: Binding affinity to human melatonin receptor type 1 at 10 uM by radioligand binding assay
Homo sapiens [40] = organism: Homo sapiens; assay: Binding affinity to human muscarinic receptor at 10 uM by radioligand binding assay
[41] = target: Substance-K receptor (Homo sapiens) (UniProt P21452); assay: Binding affinity to human NK2 receptor at 10 uM by radioligand binding assay
[42] = target: Opioid receptors; mu/kappa/delta (Homo sapiens) (UniProt P41145+P41143+P35372); assay: Binding affinity to opioid receptor (unknown origin) at 10 uM by radioligand binding assay
[43] = target: Prostacyclin receptor (Homo sapiens) (UniProt P43119); assay: Binding affinity to human IP receptor at 10 uM by radioligand binding assay

Tyrosine-protein phosphatase non-receptor type 1 (Homo sapiens), sequence (P18031 whole entry): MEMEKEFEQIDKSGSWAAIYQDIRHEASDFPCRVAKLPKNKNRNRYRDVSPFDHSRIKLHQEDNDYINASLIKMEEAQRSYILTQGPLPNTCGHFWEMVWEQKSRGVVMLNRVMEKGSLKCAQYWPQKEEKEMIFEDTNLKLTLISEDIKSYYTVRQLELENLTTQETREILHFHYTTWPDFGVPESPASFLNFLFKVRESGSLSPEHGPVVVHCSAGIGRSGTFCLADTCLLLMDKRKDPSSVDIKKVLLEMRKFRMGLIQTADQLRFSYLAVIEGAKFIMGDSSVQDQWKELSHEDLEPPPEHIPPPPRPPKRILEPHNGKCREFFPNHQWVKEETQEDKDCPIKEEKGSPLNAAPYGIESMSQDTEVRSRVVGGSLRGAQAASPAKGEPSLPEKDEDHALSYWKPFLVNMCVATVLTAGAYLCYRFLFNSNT
Nitric oxide synthase, inducible (Homo sapiens), sequence (P35228 whole entry): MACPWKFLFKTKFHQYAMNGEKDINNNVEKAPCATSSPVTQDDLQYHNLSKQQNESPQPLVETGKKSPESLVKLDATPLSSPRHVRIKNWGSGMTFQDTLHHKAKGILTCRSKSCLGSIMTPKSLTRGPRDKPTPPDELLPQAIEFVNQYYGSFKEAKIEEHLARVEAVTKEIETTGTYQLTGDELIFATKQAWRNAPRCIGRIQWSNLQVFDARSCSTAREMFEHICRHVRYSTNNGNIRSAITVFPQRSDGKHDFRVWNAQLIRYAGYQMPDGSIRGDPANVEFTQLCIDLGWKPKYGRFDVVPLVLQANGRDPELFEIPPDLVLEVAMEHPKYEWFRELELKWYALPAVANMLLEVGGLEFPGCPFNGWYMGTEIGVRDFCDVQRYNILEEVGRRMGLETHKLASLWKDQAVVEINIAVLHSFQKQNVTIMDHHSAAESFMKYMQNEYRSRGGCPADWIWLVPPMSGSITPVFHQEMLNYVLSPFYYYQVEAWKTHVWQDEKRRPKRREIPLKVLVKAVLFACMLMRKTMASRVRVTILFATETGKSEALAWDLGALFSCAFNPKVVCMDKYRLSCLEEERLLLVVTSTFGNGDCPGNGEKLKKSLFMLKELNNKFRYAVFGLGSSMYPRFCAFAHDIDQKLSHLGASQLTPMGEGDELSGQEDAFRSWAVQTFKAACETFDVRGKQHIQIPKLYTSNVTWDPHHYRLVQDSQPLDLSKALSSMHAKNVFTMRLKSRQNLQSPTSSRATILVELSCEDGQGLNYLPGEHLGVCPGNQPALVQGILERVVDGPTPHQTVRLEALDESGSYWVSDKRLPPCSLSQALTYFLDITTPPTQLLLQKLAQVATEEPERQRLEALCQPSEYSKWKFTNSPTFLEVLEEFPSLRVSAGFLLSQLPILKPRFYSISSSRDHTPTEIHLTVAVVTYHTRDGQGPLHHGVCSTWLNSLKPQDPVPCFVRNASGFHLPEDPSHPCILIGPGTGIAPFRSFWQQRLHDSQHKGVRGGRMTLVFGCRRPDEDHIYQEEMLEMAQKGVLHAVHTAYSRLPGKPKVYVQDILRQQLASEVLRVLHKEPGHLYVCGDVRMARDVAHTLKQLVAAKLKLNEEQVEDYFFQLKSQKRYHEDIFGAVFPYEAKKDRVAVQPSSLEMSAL
Histone deacetylase 4 (Homo sapiens), sequence (P56524 whole entry): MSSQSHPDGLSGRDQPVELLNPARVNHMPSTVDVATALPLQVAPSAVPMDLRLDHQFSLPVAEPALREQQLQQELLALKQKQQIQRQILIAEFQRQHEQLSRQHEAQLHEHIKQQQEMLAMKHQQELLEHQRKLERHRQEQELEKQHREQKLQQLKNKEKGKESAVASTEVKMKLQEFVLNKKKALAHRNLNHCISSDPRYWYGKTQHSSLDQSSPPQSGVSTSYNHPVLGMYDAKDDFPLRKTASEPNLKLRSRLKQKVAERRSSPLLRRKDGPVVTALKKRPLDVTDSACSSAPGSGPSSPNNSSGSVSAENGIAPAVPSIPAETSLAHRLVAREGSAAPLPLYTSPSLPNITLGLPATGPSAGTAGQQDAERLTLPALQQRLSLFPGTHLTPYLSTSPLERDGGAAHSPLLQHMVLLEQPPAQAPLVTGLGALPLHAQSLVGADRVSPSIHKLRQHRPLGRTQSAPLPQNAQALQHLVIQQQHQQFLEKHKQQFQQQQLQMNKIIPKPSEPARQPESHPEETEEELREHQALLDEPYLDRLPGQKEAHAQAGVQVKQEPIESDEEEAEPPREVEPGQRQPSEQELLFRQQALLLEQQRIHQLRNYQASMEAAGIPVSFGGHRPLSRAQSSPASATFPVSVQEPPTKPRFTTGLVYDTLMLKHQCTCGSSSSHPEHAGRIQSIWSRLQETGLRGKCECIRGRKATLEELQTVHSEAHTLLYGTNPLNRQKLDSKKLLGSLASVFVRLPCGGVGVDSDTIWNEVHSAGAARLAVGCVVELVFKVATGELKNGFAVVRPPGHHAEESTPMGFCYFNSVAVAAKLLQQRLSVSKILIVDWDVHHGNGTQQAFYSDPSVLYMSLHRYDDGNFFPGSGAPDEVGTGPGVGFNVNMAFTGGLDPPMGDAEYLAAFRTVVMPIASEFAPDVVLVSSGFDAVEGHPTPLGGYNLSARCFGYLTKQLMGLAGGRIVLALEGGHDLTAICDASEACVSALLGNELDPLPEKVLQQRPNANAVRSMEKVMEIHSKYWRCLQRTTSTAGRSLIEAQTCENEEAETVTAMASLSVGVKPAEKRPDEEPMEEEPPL
Sodium-dependent serotonin transporter (Homo sapiens), sequence (P31645 whole entry, looked up): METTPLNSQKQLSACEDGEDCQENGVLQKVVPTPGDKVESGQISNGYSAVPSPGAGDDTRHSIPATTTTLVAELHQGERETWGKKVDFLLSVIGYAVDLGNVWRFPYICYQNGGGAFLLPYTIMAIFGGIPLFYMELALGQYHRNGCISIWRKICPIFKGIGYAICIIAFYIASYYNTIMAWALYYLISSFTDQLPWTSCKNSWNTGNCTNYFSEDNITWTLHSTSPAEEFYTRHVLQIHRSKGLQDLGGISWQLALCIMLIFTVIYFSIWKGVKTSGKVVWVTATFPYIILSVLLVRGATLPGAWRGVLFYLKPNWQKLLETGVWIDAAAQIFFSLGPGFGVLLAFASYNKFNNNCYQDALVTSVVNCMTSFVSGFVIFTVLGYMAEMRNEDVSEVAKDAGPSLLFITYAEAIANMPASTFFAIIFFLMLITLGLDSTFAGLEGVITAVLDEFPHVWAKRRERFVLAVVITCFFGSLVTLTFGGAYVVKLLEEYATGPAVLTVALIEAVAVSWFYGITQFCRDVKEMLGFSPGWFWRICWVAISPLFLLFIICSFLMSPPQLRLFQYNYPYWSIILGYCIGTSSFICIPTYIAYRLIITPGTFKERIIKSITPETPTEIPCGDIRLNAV
Amine oxidase [flavin-containing] A, sequence (P21397 whole entry): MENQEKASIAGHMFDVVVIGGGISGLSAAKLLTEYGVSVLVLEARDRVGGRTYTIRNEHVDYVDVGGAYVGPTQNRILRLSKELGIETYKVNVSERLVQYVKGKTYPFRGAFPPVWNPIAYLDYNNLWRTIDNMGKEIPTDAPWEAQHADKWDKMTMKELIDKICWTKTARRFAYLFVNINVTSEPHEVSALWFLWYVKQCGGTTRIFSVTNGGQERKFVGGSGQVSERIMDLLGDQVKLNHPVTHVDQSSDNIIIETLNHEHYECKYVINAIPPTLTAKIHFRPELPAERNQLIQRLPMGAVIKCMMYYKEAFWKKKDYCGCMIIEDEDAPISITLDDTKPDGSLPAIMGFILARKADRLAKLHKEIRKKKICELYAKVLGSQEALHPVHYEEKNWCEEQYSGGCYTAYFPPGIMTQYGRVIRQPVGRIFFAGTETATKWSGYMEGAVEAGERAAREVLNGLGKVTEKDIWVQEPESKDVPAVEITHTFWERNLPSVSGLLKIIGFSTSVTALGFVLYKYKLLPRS
Estrogen receptor (Homo sapiens), sequence (P03372 whole entry): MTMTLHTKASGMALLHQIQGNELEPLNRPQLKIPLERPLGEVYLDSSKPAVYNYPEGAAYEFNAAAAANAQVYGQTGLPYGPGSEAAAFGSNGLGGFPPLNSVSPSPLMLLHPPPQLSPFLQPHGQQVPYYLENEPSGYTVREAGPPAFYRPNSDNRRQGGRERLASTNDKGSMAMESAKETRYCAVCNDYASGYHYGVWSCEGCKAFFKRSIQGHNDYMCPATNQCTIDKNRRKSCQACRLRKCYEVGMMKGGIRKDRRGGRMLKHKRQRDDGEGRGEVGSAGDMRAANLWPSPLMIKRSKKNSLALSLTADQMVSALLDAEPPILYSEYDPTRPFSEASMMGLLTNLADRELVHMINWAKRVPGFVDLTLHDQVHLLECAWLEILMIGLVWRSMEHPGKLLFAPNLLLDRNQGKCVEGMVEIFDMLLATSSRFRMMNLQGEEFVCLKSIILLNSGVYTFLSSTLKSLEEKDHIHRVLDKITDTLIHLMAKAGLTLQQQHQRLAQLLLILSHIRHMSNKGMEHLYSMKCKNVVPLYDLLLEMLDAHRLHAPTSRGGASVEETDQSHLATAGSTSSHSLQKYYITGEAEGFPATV
Vasopressin V1a receptor (Homo sapiens), sequence (P37288 whole entry, looked up): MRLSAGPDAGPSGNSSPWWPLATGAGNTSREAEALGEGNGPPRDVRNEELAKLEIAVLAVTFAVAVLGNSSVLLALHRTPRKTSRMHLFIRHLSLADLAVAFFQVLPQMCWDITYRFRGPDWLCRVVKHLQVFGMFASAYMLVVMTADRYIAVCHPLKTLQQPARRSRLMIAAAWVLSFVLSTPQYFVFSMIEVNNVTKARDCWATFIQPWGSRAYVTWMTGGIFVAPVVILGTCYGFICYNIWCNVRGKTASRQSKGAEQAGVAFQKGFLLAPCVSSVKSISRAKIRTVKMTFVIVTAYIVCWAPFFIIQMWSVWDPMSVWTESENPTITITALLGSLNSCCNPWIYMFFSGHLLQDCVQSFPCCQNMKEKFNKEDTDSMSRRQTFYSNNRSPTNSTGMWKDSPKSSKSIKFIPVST
Calcitonin gene-related peptide 1 (Homo sapiens), sequence (P06881 83-119 limits assumed): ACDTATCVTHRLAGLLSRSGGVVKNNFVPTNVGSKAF

## CCCCCCNC(=O)Oc1cccc(-c2ccc([C@H](C)C(=O)O)cc2F)c1
Homo sapiens [1]
  Activity: 7.8%
[2]
  Activity: -10.5%
[3]
  Activity: 3.7%
[4]
  Activity: 0.4%
Homo sapiens [5]
  Activity: -7.7%
Homo sapiens [6]
  Activity: 10.1%
Homo sapiens [7]
  Activity: -10.6%
[8]
  Activity: 13.5%
[9]
  Activity: -1.4%
[10]
  Activity: -3%
[11]
  Activity: -3.2%
[12]
  Activity: -5.8%
[13]
  Activity: -1.4%
[14]
  Activity: 0.3%
[15]
  Activity: -21.9%
[16]
  Activity: -6.3%
[17]
  Activity: -5.3%
[18]
  Activity: -26.1%
[19]
  Activity: -4.1%
[20]
  Activity: 7.6%
[21]
  Activity: -11.2%
[22]
  Activity: -15.4%
[23]
  Activity: 0.9%
[24]
  Activity: -3.3%
[25]
  Activity: -8.7%
Mus musculus [26]
  inhibition: Active
Mus musculus [27]
  inhibition: Active
Mus musculus [28]
  inhibition: Active
[29]
  Activity: -7.5%
[30]
  Activity: -5.1%
[31]
  Activity: -11.7%
[32]
  Activity: -3%
[33]
  Activity: 26.5%
[34]
  Activity: -5.6%
[35]
  Activity: -5%
[36]
  Activity: 0.7%
[37]
  Activity: -4.4%
[38]
  Activity: 0.9%
[39]
  Activity: -9.9%
Homo sapiens [40]
  Activity: 5%
[41]
  Activity: -1.6%
[42]
  Activity: 15.5%
[43]
  Activity: 13.7%

Reference: ChEMBL document CHEMBL3774360, “Potent multitarget FAAH-COX inhibitors: Design and structure-activity relationship studies” (Eur J Med Chem, 2016)
